Data on 17 molecules can be found in US20090221642A1, “MUSCARINIC RECEPTOR AGONISTS, COMPOSITIONS, METHODS OF TREATMENT THEREOF, AND PROCESSES FOR PREPARATION THEREOF-176” (AstraZeneca AB, priority 2008, published 2009).

SMILES strings stand for the structures.

In experiment [1] the target is T1, hM1 (human Muscarinic receptor subtype 1) (Homo sapiens, UniProt P11229).
T1 construct: expressed in transfected cells; host or cells: CHO cells (Chinese hamster ovary cells, ATCC)
T1 sequence (P11229 1-460): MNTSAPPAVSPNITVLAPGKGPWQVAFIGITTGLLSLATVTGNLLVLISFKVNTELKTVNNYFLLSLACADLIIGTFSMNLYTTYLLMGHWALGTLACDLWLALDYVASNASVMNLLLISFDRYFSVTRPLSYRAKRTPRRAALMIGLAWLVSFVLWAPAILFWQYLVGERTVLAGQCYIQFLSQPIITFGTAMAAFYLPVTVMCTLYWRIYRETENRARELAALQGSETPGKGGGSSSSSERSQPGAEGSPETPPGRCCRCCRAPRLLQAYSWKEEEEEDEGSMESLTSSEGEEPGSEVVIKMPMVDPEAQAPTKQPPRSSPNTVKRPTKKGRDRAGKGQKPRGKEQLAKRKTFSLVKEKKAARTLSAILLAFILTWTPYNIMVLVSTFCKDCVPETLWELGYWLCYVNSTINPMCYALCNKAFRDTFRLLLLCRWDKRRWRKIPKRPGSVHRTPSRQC
Put plainly: Human M1 calcium mobilization FLIPR assay. Particulars: hM1 expressed in CHO cells, intracellular Ca2+ release, read-out: hM1 EC50. The experiment is classed as cell-based. The method, boiled down:
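CHO cells expressing the receptor, dye-loaded at 37°C for 60 min, read on FLIPR at 510-570 nm. Agonism taken from compound-induced Ca2+ rise (max RFU for M1); M3/M5 inhibition measured against 2 nM acetylcholine using max minus min RFU. 10-point threefold dilutions, sigmoidal fits.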
(In general: Calcium assays in cells follow changes in intracellular calcium, usually with a dye or a luminescent sensor.)

Experiment [2] addresses T2, cloned human M2 receptor (human Muscarinic receptor subtype 2) (Homo sapiens, UniProt P08172).
T2 construct: purchased Perkin-Elmer RBHM2M; host or cells: Chinese hamster ovary cells (CHO) membranes
T2 sequence (P08172 1-466): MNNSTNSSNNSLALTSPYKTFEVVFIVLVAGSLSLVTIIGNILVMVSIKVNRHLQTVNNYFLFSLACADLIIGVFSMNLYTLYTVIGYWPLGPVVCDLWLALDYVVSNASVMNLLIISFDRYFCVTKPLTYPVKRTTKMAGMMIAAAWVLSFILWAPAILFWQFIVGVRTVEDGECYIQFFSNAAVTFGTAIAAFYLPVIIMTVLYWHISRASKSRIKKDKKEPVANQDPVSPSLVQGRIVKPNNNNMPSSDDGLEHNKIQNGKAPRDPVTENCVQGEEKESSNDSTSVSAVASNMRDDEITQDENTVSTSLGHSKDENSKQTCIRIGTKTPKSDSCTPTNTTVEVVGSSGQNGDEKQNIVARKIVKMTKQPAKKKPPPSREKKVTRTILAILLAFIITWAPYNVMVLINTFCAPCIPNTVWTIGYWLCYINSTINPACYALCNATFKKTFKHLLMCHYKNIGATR
In words: hM2 receptor GTPγS binding. The experiment is classed as biochemical. Particulars: CHO cell membranes expressing hM2; [35S]GTPγS binding; read-out: hM2 EC50. On the procedure: hM2 Receptor GTPγS Binding
Membranes produced from Chinese hamster ovary cells (CHO) expressing the cloned human M2 receptor (human Muscarinic receptor subtype 2, gene bank access NM_000739), are obtained from Perkin-Elmer (RBHM2M). The membranes are thawed at 37° C., passed 3 times through a 23-gauge blunt-end needle, diluted in the GTPγS binding buffer (50 mM Hepes, 20 mM NaOH, 100 mM NaCl, 1 mM EDTA, 5 mM MgCl2, pH 7.4, 100 μM DTT). The EC50, IC50 and Emax of the compounds of the invention are evaluated from 10-point dose-response curves (three fold concentration range) done in 60 μl in 384-well non-specific binding surface plate (Corning). Ten microliters from the dose-response curves plate (5× concentration) are transferred to another 384 well plate containing 25 μl of the following: 5 μg of hM2 membranes, 500 μg of Flashblue beads (Perkin-Elmer) and GDP 25 μM. An additional 15 μl containing 3.3× (60,000 dpm) of GTPγ^35S (0.4 nM final) are added to the wells resulting in a total well volume of 50 μl. Basal and maximal stimulated [^35S]GTPγS binding are determined in absence and presence of 30 μM final of acetylcholine agonist. The membranes/beads mix are pre-incubated for 15 minutes at room temperature with 25 μM GDP prior to distribution in plates (12.5 μM final). The reversal of acetylcholine-induced stimulation (2 μM final) of [^35S]GTPγS binding is used to assay the antagonist properties (IC50) of the compounds. The plates are incubated for 60 minutes at room temperature then centrifuged at 400 rpm for 5 minutes. The radioactivity (cpm) is counted in a Trilux (Perkin-Elmer).
Values of EC50, IC50 and Emax are obtained using sigmoidal fits of a non-linear curve-fitting program (XLfit version 4.2.2 Excel add-in version 4.2.2 build 18 math 1Q version 2.1.2 build 18) of percent stimulated [^35S]GTPγS binding vs. log(molar ligand). All pEC50 and plC50 values are reported as arithmetic means ±standard error of mean of ‘n’ independent experiments.
(In general: GTPγS resists hydrolysis and so accumulates on activated G proteins.)

A word on the EC50: it is the midpoint of the concentration-response curve. Take `Cc1ccc2[nH]c(=O)n(C3CCN(C4(C)CCN(C(=O)OCCF)C4)CC3)c2c1` (single isomer, unassigned) [Example 26, 2-fluoroethyl 3-methyl-3-(4-(6-methyl-2-oxo-2,3-dihydro-1H-benzo[d]imidazol-1-yl)piperidin-1-yl)pyrrolidine-1-carboxylate]: the EC50 was found to be 7.8 nM in experiment [1] and 146 nM in experiment [2].

Regarding `Cc1ccc2c(c1)[nH]c(=O)n2C1CCN(C2(C)CCN(C(=O)OCCF)C2)CC1` (single isomer, unassigned) [Example 27, 2-fluoroethyl 3-methyl-3-(4-(5-methyl-2-oxo-2,3-dihydro-1H-benzo[d]imidazol-1-yl)piperidin-1-yl)pyrrolidine-1-carboxylate], the EC50 came to 10.8 nM in experiment [1] and 620 nM in experiment [2].

In the case of `Cc1ccc2[nH]c(=O)n(C3CCN(C4(C)CCN(C(=O)OCCF)C4)CC3)c2c1` (single isomer, unassigned) [Example 28, 2-fluoroethyl 3-methyl-3-(4-(6-methyl-2-oxo-2,3-dihydro-1H-benzo[d]imidazol-1-yl)piperidin-1-yl)pyrrolidine-1-carboxylate], the EC50 was determined as 10 nM in experiment [1] and 2400 nM in experiment [2].

As to `CC1(N2CCC(n3c(=O)[nH]c4ccccc43)CC2)CCN(C(=O)OCCF)C1` (single isomer, unassigned) [Example 31, 2-fluoroethyl 3-methyl-3-(4-(2-oxo-2,3-dihydro-1H-benzo[d]imidazol-1-yl)piperidin-1-yl)pyrrolidine-1-carboxylate], the EC50 is 13.1 nM in experiment [1] and 997 nM in experiment [2].

As to `CC1(N2CCC(n3c(=O)[nH]c4ccccc43)CC2)CCN(C(=O)OCCF)C1` (single isomer, unassigned) [Example 32, 2-fluoroethyl 3-methyl-3-(4-(2-oxo-2,3-dihydro-1H-benzo[d]imidazol-1-yl)piperidin-1-yl)pyrrolidine-1-carboxylate], the EC50 came to 52.1 nM in experiment [1] and 5840 nM in experiment [2].

For the molecule `CC#CCOC(=O)N1CCC(C)(N2CCC(n3c(=O)[nH]c4ccccc43)CC2)C1` (single isomer, unassigned) [Example 33, but-2-ynyl 3-methyl-3-(4-(2-oxo-2,3-dihydro-1H-benzo[d]imidazol-1-yl)piperidin-1-yl)pyrrolidine-1-carboxylate], the EC50 is 1.7 nM in experiment [1] and 104 nM in experiment [2].

For the molecule `CC#CCOC(=O)N1CCC(C)(N2CCC(n3c(=O)[nH]c4ccccc43)CC2)C1` (single isomer, unassigned) [Example 34, but-2-ynyl 3-methyl-3-(4-(2-oxo-2,3-dihydro-1H-benzo[d]imidazol-1-yl)piperidin-1-yl)pyrrolidine-1-carboxylate], the EC50 worked out at 14.7 nM in experiment [1] and 897 nM in experiment [2].

As for `C#CCOC(=O)N1CCC(C)(N2CCC(n3c(=O)[nH]c4cc(F)ccc43)CC2)C1` (single isomer, unassigned) [Example 36, prop-2-ynyl 3-(4-(5-fluoro-2-oxo-2,3-dihydro-1H-benzo[d]imidazol-1-yl)piperidin-1-yl)-3-methylpyrrolidine-1-carboxylate], the EC50 in experiment [1] was 32 nM; in experiment [2], 1560 nM.

With `Cc1ccc2[nH]c(=O)n(C3CCN(C4(C)CCN(C(=O)OC(C)C)C4)CC3)c2c1` (single isomer, unassigned) [Example 39, isopropyl 3-methyl-3-(4-(6-methyl-2-oxo-2,3-dihydro-1H-benzo[d]imidazol-1-yl)piperidin-1-yl)pyrrolidine-1-carboxylate], the values for the half-maximal effective concentration (EC50) in experiment [1] and in experiment [2] were 26.7 nM and over 12800 nM, respectively.

As for `Cc1ccc2[nH]c(=O)n(C3CCN(C4(C)CCN(C(=O)OC(C)C)C4)CC3)c2c1` (single isomer, unassigned) [Example 40, isopropyl 3-methyl-3-(4-(6-methyl-2-oxo-2,3-dihydro-1H-benzo[d]imidazol-1-yl)piperidin-1-yl)pyrrolidine-1-carboxylate], the values for the EC50 in experiment [1] and in experiment [2] were 36.3 nM and 2810 nM, respectively.

In the case of `C#CCOC(=O)N1CCC(C)(N2CCC(n3c(=O)[nH]c4ccc(C)cc43)CC2)C1` (single isomer, unassigned) [Example 41, prop-2-ynyl 3-methyl-3-(4-(6-methyl-2-oxo-2,3-dihydro-1H-benzo[d]imidazol-1-yl)piperidin-1-yl)pyrrolidine-1-carboxylate], the results for the EC50 in experiment [1] and in experiment [2] were 23.5 nM and 2210 nM, respectively.

For the molecule `C#CCOC(=O)N1CCC(C)(N2CCC(n3c(=O)[nH]c4ccc(C)cc43)CC2)C1` (single isomer, unassigned) [Example 43, prop-2-ynyl 3-methyl-3-(4-(6-methyl-2-oxo-2,3-dihydro-1H-benzo[d]imidazol-1-yl)piperidin-1-yl)pyrrolidine-1-carboxylate], the results for the EC50 in experiment [1] and in experiment [2] were 2.5 nM and 109 nM, respectively.

In the case of `C#CCOC(=O)N1CCC(C)(N2CCC(n3c(=O)[nH]c4cc(C)ccc43)CC2)C1` (single isomer, unassigned) [Example 44, prop-2-ynyl 3-methyl-3-(4-(5-methyl-2-oxo-2,3-dihydro-1H-benzo[d]imidazol-1-yl)piperidin-1-yl)pyrrolidine-1-carboxylate], the EC50 is under 2.3 nM in experiment [1] and 26 nM in experiment [2].

As for `COC(=O)N1CCC(C)(N2CCC(n3c(=O)[nH]c4ccc(C)cc43)CC2)C1` (single isomer, unassigned) [Example 45, methyl 3-methyl-3-(4-(6-methyl-2-oxo-2,3-dihydro-1H-benzo[d]imidazol-1-yl)piperidin-1-yl)pyrrolidine-1-carboxylate], the EC50 in experiment [1] stood at 14.1 nM; in experiment [2], 1640 nM.

On to `COC(=O)N1CCC(C)(N2CCC(n3c(=O)[nH]c4ccc(C)cc43)CC2)C1` (single isomer, unassigned) [Example 47, methyl 3-methyl-3-(4-(6-methyl-2-oxo-2,3-dihydro-1H-benzo[d]imidazol-1-yl)piperidin-1-yl)pyrrolidine-1-carboxylate], for which the EC50 in experiment [1] is under 3.2 nM; in experiment [2] it was 127 nM.

As for `COC(=O)N1CCC(C)(N2CCC(n3c(=O)[nH]c4cc(C)ccc43)CC2)C1` (single isomer, unassigned) [Example 48, methyl 3-methyl-3-(4-(5-methyl-2-oxo-2,3-dihydro-1H-benzo[d]imidazol-1-yl)piperidin-1-yl)pyrrolidine-1-carboxylate], the results for the EC50 in experiment [1] and in experiment [2] were 8.5 nM and 571 nM, respectively.

`CCOC(=O)N1CCC(C)(N2CCC(n3c(=O)[nH]c4ccc(F)cc43)CC2)C1` (single isomer, unassigned) [Example 49, ethyl 3-(4-(6-fluoro-2-oxo-2,3-dihydro-1H-benzo[d]imidazol-1-yl)piperidin-1-yl)-3-methylpyrrolidine-1-carboxylate]: the figures for the EC50 in experiment [1] and in experiment [2] were 15.1 nM and 4550 nM, respectively.
